Data: US5336757A, “Antibacterial peptide and methods of use” (Harbor Branch Oceanographic Institution, Inc., priority 1992, dated 1994)
≈ marks a conversion by molar mass, not a printed value. Bridge positions count the residues as written; N and C are the ends. Square brackets hold non-standard residues; d marks the D form. Peptide text beside a SMILES is read from it. * marks the point of attachment. Phe(4-Br) = N[C@@H](Cc1ccc(Br)cc1)C(=O)O; Ile(3-Me) = CCC(C)(C)[C@H](N)C(=O)O; Cya = N[C@@H](CS(=O)(=O)O)C(=O)O; NMeQ = CN[C@@H](CCC(N)=O)C(=O)O; Tle = CC(C)(C)[C@H](N)C(=O)O; For = O=C*

How the values were obtained:
Bacillus subtilis = assay type: cell-based
Experimental: Bacillus subtilis: Standard spore stocks (ATCC strain 6633) were purchased from Difco (#0453-36-0). Two-fold dilutions of polydiscamide A were prepared in 50 μL volumes of a suitable solvent using 96-well microtiter plates. In a separate 96-well plate, 35 μL volumes of Mueller-Hinton broth were placed in each well. The compound (5 μL) was then transferred to the broth. An inoculum of B. subtilis in the appropriate medium was added to give a cell density of 1000 cells/mL and a total volume of 50 μL. Plates were incubated at 37° C. overnight.

[1] = test system: P388 murine leukemia cells; conditions: 48 h
Experimental: Polydiscamide A was tested for toxicity against P388 murine leukemia cells and A549 human lung carcinoma cells.
The P388 cells were maintained in Roswell Park Memorial Institute medium 1640 (RPMI-1640) supplemented with 10% horse serum and cultured in plastic tissue culture flasks and kept in an incubator at 37° C. in humidified air containing 5% CO2. The A549 cells were similarly maintained in RPMI-1640 but supplemented with 10% fetal bovine serum. Antibiotic-free stock cultures of P388 and A549 cells were subcultured to 10^5 cells/ml by dilutions in fresh growth medium at 2 to 5 day intervals. […]
To quantitate the effects of polydiscamide A or its analogs on cell proliferation, 75 μl warm growth medium containing 5 mg/ml MTT was added to each well. […] To spectrophotometrically quantitate formation of reduced formazan, plates were centrifuged (900 g, 5 minutes), culture fluids were removed by aspiration, and 200 μl of acidified isopropanol (2 ml concentrated HCl/L isopropanol) added per well. The absorbance of the resulting solutions was measured at 570 nm with a plate reader (MR700 Microplate Reader, Dynatech Laboratories, Chantilly, Va.). […]

[2] = test system: A549 human lung carcinoma cells; conditions: 72 h
Experimental: P388 murine leukemia cells obtained from Dr. J. Mayo, National Cancer Institute, Bethesda, Md., and A549 cells were obtained from the American Type Culture Collection, Rockville, Md. The P388 cells were maintained in Roswell Park Memorial Institute medium 1640 (RPMI-1640) supplemented with 10% horse serum and cultured in plastic tissue culture flasks and kept in an incubator at 37° C. in humidified air containing 5% CO2. The A549 cells were similarly maintained in RPMI-1640 but supplemented with 10% fetal bovine serum. Antibiotic-free stock cultures of P388 and A549 cells were subcultured to 10^5 cells/ml by dilutions in fresh growth medium at 2 to 5 day intervals. […]
To quantitate the effects of polydiscamide A or its analogs on cell proliferation, 75 μl warm growth medium containing 5 mg/ml MTT was added to each well. […] To spectrophotometrically quantitate formation of reduced formazan, plates were centrifuged (900 g, 5 minutes), culture fluids were removed by aspiration, and 200 μl of acidified isopropanol (2 ml concentrated HCl/L isopropanol) added per well. The absorbance of the resulting solutions was measured at 570 nm with a plate reader (MR700 Microplate Reader, Dynatech Laboratories, Chantilly, Va.).

CCC(C)(C)[C@H](NC(=O)[C@@H](NC(=O)[C@@H]1CCCN1C(=O)[C@H](Cc1ccc(Br)cc1)NC(=O)[C@H](C)NC=O)C(C)(C)C)C(=O)N[C@@H](Cc1c[nH]c2ccccc12)C(=O)N[C@@H](CCCNC(=N)N)C(=O)N[C@@H](CS(=O)(=O)O)C(=O)N[C@@H]1C(=O)N(C)[C@@H](CCC(N)=O)C(=O)N[C@@H](C(C)C)C(=O)N2CCC[C@H]2C(=O)N[C@@H](CC(N)=O)C(=O)O[C@@H]1C [polydiscamide A] (For-A[Phe(4-Br)]P[Tle][Ile(3-Me)]WR[Cya]T[NMeQ]VPN; ester 9-C)
MIC against B. subtilis (Bacillus subtilis): 3.1 µg/mL (≈ 1.81 µM)
IC50 against mouse leukemia cells (P388) [1]: 0.96 µg/mL (≈ 0.561 µM)
IC50 against cultured human lung carcinoma cells (A549) [2]: 0.66 µg/mL (≈ 0.386 µM)
